The record followed here is US9645128B2, “Substituted imidazo[1,2-A]pyrazines for measuring a transcription activity” (JNC CORPORATION, priority 2009, dated 2017).

Broadly, the melting point is the temperature of the solid-liquid transition.

Data set [1] addresses T1, recombinant apoaequorin (Aequorea victoria, UniProt P07164). Put plainly: Luminescence patterns and half decay time of semi-synthetic aequorins. In kind it is biochemical. Details: purchased Chisso Corporation. As to conditions: for Half decay time sec.: semi-synthetic aequorin, time to reach half of the maximum luminescence intensity. The protocol: The dilution was dispensed into a 96-well microplate (Nunc #236108) in 5 μl/well. […] The luminescence patterns for 60 seconds were measured to determine the half decay time of luminescence (time period to reach the half of the maximum luminescence intensity).

The target in data set [2] is T2, 19 kDa protein of Oplophorus luciferase (Oplophorus gracilirostris, UniProt Q9GV45).
T2 construct: made in house
Put plainly: Substrate specificity, luminescence activity and emission spectra of the 19 kDa protein of Oplophorus luciferase. As to conditions: for Maximum emission wavelength λmax (nm) / Luminescence capacity 10 secs. (%) / Luminescence activity Imax (%): Oplophorus luciferase; for Maximum emission wavelength λmax (nm): 22 to 25° C.; for Luminescence capacity 10 secs. (%): emission integrated for 10 seconds; for Luminescence capacity 10 secs. (%) / Luminescence activity Imax (%): coelenterazine = 100.0; for Quality as luminescence substrate for Oplophorus luciferase: TABLE 2. It counts as biochemical, Oplophorus gracilorostris.

The target of data set [3] is T1, recombinant apoaequorin. The experiment in a line: Emission spectra of semi-synthetic aequorins by addition of calcium ions. Conditions: for Maximum emission wavelength λmax (nm): semi-synthetic aequorin, 22 to 25° C.; for Emission spectra of semi-synthetic aequorins compared with known analogs (FIG. 3): compared to h-CTZ and i-CTZ.
Protocol: In a quartz cell with an optical path length of 10 mm, 1 ml of 50 mM Tris-HCl (pH 7.6) containing 1 mM EDTA and 100 μl (100 μg protein) of a solution of the regenerated semi-synthetic aequorin were charged and they were mixed. Subsequently, 100 μl of 50 mM Tris-HCl (pH 7.6) containing 0.1 ml of 10 mM calcium chloride solution was added to the mixture to trigger the luminescence reaction. The spectra were measured on a spectrofluorimeter (FP-6500, manufactured by JASCO Corporation) with the excitation source turned off. The measurement conditions used were as follows: band width, 20 nm; response, 0.5 second and scan speed, 2000 nm/min at 22 to 25° C.
The target of the next data set is T3, Renilla luciferase (Renilla reniformis, UniProt P27652).
T3 construct: made in house
T3 sequence (P27652 1-311): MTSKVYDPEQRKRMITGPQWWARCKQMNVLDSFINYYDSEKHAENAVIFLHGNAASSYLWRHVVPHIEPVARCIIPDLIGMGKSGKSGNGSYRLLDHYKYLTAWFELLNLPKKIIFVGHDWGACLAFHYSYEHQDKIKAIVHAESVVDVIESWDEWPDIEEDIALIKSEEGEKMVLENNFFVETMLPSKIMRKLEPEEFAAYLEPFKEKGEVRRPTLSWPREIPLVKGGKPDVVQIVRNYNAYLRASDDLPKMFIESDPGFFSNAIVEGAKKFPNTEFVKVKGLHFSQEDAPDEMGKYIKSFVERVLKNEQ
The experiment in a line: Substrate specificity, luminescence activity and emission spectra of Renilla luciferase. It counts as biochemical. As to conditions: for Maximum emission wavelength λmax (nm) / Luminescence activity Imax (%) / Luminescence capacity 10 secs. (%): Renilla luciferase; for Maximum emission wavelength λmax (nm): 22 to 25° C.; for Luminescence activity Imax (%) / Luminescence capacity 10 secs. (%): coelenterazine = 100.0; for Ability to act as substrate for Renilla luciferase: TABLE 4. An excerpt:
Res. Commun. (1997) 233: 349-353, which was provided for use.

Data set [4] addresses T1, recombinant apoaequorin. The experiment in a line: Production of semi-synthetic aequorins and measurement of luminescence activity (Imax, luminescence capacity). As to conditions: for Luminescence activity Imax (%) / Luminescence capacity 60 sec (%): semi-synthetic aequorin, coelenterazine = 100.0; for Luminescence activity Imax (%): Ca2+-triggered, maximum intensity; for Luminescence capacity 60 sec (%): emission integrated for 60 seconds; for Ability to act as luminescence substrate for semi-synthetic aequorins (FIG. 1): regeneration 0.5 to 18 hours at 4° C.
Protocol: In order to confirm the regeneration time and regeneration efficiency from apoaequorin to the semi-synthetic aequorin, the luminescence activity was assayed at the respective points of the regeneration process (at the respective points of 0.5, 1, 1.5, 2, 3 and 18 hours from the start of regeneration).
Specifically, the luminescence activity described above was measured as follows. The luminescence reaction was started by adding 100 μl of 50 mM Tris-HCl (pH 7.6) containing 50 mM calcium chloride solution to 2 μl of a solution of the semi-synthetic aequorin at each regeneration process. The luminescence activity was measured for 10 seconds with a luminometer Luminescencer-PSN AB2200 (manufactured by Atto Co., Ltd.). The measured values were represented as the maximum intensity (Imax) of luminescence. The emission for 60 seconds was integrated, which was made a luminescence capacity.

The subject of a further data set is Gaussia luciferase. The experiment in a line: Substrate specificity, luminescence activity and emission spectra of Gaussia luciferase. As to conditions: for Luminescence activity Imax (%) / Luminescence capacity 10 secs. (%): Gaussia luciferase, coelenterazine = 100.0.
Data set [5] deals with T1, recombinant apoaequorin. The experiment in a line: Calcium standard curve with semi-synthetic aequorins. In kind it is biochemical. Details: purchased Chisso Corporation. As to conditions: Imax versus 10^-3 M to 10^-8 M calcium. As to the method:
The dilution series was prepared by the serial process above to prepare standard calcium solution of 10^−3 M to 10^−8 M.
The semi-synthetic aequorin obtained was concentrated using Amicon Ultra-4 (manufactured by Millipore, molecular weight cut off, 10.000).
This semi-synthetic aequorin solution (2.5 mg/ml) was diluted with 20 mM Tris-HCl (pH 7.6) containing 0.1% BSA (manufactured by Sigma), 0.01 mM EDTA and 150 mM NaCl.
The calcium standard solution prepared as described above was dispensed into a 96-well microplate (Nunc #236108) in 50 μl/well, and the semi-synthetic aequorin solution diluted was injected in […]. The luminescence intensity was measured for 60 seconds using a luminescence plate reader Centro LB960 (manufactured by Berthold) and expressed in terms of the maximum luminescence intensity (Imax). The luminescence intensity was measured for each semi-synthetic aequorin in the same fashion. Based on the maximum luminescence intensity (Imax) obtained, the calcium standard curve for each semi-synthetic aequorin was prepared.

T2 sequence (Q9GV45 28-196): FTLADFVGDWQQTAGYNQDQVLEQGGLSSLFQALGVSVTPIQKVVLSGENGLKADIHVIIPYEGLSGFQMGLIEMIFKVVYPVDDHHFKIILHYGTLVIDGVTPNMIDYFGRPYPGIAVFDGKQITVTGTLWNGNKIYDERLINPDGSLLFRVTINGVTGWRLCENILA
T1 sequence (P07164 other isoform, or with tags, fused parts or gaps with the stated changes): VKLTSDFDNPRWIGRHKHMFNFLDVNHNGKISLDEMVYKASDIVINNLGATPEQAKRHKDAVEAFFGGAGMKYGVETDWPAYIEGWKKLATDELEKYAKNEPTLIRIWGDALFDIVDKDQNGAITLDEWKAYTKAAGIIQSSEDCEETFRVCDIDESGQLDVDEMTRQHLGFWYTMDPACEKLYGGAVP
Protocol for Gaussia luciferase: The luminescence activity was measured for 10 seconds using a luminometer Luminescencer-PSN AB2200 (manufactured by Atto Co., Ltd.). The luminescence activity was measured 3 times and expressed as the maximum intensity (Imax) of luminescence.

Consider “coelenterazine [CTZ, reference compound]”, for which, at recombinant apoaequorin [1], the “Half decay time sec.” value came to 0.81 s. The “Maximum emission wavelength λmax (nm)” value in data set [2] is recorded as 457.0 nm; at recombinant apoaequorin [3], 465.5 nm; on Renilla luciferase it was 472.5 nm. Also, the “Luminescence capacity 10 secs. (%)” value (in data set [2]; on Renilla luciferase; with Gaussia luciferase) was 100.0% each time. Moreover, the “Luminescence activity Imax (%)” value (in data set [2]; on Renilla luciferase; on recombinant apoaequorin [4]; in the data set with Gaussia luciferase) was 100.0% each time. On recombinant apoaequorin [4], the “Luminescence capacity 60 sec (%)” value was 100.0%.

`Cc1ccc(Cc2nc3c(Cc4ccccc4)[nH]c(-c4ccc(O)cc4)cn-3c2=O)cc1` [me-CTZ, me-coelenterazine]: the melting point was 150 to 152 °C (dec.). For the same molecule, on recombinant apoaequorin [5], the “Calcium standard curve with semi-synthetic aequorin (FIG. 4)” value (“Calcium standard curve” below) is listed as “calcium standard curves can be prepared”. For the same molecule, on recombinant apoaequorin [1] (semi-synthetic aequorin (FIG. 2, TABLE 1)), the “Half decay time of luminescence compared with CTZ” value is “longer than CTZ”. The “Half decay time sec.” value at recombinant apoaequorin [1] amounted to 5.00 s. Moreover, in data set [2], the “Maximum emission wavelength λmax (nm)” value worked out at 454.4 nm, the “Luminescence capacity 10 secs. (%)” value is recorded as 82.7%, the “Luminescence activity Imax (%)” value is 46.6% and the “Quality as luminescence substrate for Oplophorus luciferase” value (from here on “Quality … for Oplophorus luciferase”) is recorded as “relatively good luminescence substrates”. Also, on recombinant apoaequorin [3], the “Emission spectra of semi-synthetic aequorins compared with known analogs (FIG. 3)” value was “exhibit different emission spectra from those of known coelenterazine analogs” and the “Maximum emission wavelength λmax (nm)” value is 469.5 nm. In addition, on Renilla luciferase, the “Maximum emission wavelength λmax (nm)” value turned out to be 472.0 nm, the “Luminescence activity Imax (%)” value worked out at 6.6%, the “Luminescence capacity 10 secs. (%)” value is listed as 7.0% and the “Ability to act as substrate for Renilla luciferase” value is listed as “can be substrates for Renilla luciferase”. The “Ability to act as luminescence substrate for semi-synthetic aequorins (FIG. 1)” value (“Ability to act as luminescence substrate” below) at recombinant apoaequorin [4] was “can be luminescence substrates for semi-synthetic aequorins”. In the data set with Gaussia luciferase, the “Luminescence activity Imax (%)” value is 4.5% and the “Luminescence capacity 10 secs. (%)” value amounted to 5.9%. In the data set on Gaussia luciferase (TABLE 3), the “Quality as luminescence substrate for Gaussia luciferase” value is recorded as “effective luminescence substrates”.

Take `COc1ccc(Cc2nc3c(Cc4ccccc4)[nH]c(-c4ccc(O)cc4)cn-3c2=O)cc1` [meo-CTZ, meo-coelenterazine]: the melting point is 137 to 139 °C (dec.). Moreover, at recombinant apoaequorin [5], the “Calcium standard curve” value is “calcium standard curves can be prepared”. For the same molecule, the “Half decay time sec.” value on recombinant apoaequorin [1] is 1.63 s. Also, in data set [2], the “Maximum emission wavelength λmax (nm)” value came to 454.5 nm, the “Luminescence capacity 10 secs. (%)” value worked out at 108.6%, the “Luminescence activity Imax (%)” value amounted to 68.1% and the “Quality … for Oplophorus luciferase” value is recorded as “relatively good luminescence substrates”. Further, at recombinant apoaequorin [3], the “Emission spectra of semi-synthetic aequorins compared with known analogs (FIG. 3)” value is recorded as “exhibit different emission spectra from those of known coelenterazine analogs” and the “Maximum emission wavelength λmax (nm)” value amounted to 469.0 nm. At Renilla luciferase, the “Maximum emission wavelength λmax (nm)” value is on record as 472.5 nm, the “Luminescence activity Imax (%)” value is 8.0%, the “Luminescence capacity 10 secs. (%)” value was 8.6% and the “Ability to act as substrate for Renilla luciferase” value is on record as “can be substrates for Renilla luciferase”. Besides, the “Ability to act as luminescence substrate” value at recombinant apoaequorin [4] is reported as “can be luminescence substrates for semi-synthetic aequorins”. For the same molecule, in the data set on Gaussia luciferase, the “Luminescence activity Imax (%)” value turned out to be 13.6% and the “Luminescence capacity 10 secs. (%)” value turned out to be 15.5%.

For the molecule “i-coelenterazine [i-CTZ, reference compound]”, the “Half decay time sec.” value on recombinant apoaequorin [1] was found to be 11.42 s. The figures for the “Maximum emission wavelength λmax (nm)” value (in data set [2]; at recombinant apoaequorin [3]; on Renilla luciferase) were 450.0 nm, 472.0 nm and 473.0 nm, respectively. In addition, the “Luminescence capacity 10 secs. (%)” value is recorded as 53.8% in data set [2], 0.3% at Renilla luciferase and 1.3% in the data set with Gaussia luciferase. The “Luminescence activity Imax (%)” value in data set [2] is on record as 32.3%; at Renilla luciferase, 0.2%; at recombinant apoaequorin [4] it was 5.0%; in the data set with Gaussia luciferase it was 0.9%. Moreover, the “Luminescence capacity 60 sec (%)” value at recombinant apoaequorin [4] turned out to be 65.3%.

For et-coelenterazine [et-CTZ], the “Calcium standard curve” value on recombinant apoaequorin [5] is on record as “calcium standard curves can be prepared”. Also, at recombinant apoaequorin [1], the “Half decay time sec.” value came to 1.21 s. Moreover, in data set [2], the “Maximum emission wavelength λmax (nm)” value was 454.0 nm, the “Luminescence capacity 10 secs. (%)” value came to 39.5%, the “Luminescence activity Imax (%)” value was found to be 21.1% and the “Quality … for Oplophorus luciferase” value is recorded as “relatively good luminescence substrates”. Further, on recombinant apoaequorin [3], the “Emission spectra of semi-synthetic aequorins compared with known analogs (FIG. 3)” value is on record as “exhibit different emission spectra from those of known coelenterazine analogs” and the “Maximum emission wavelength λmax (nm)” value is given as 472.0 nm. Also, at Renilla luciferase, the “Maximum emission wavelength λmax (nm)” value worked out at 471.0 nm, the “Luminescence activity Imax (%)” value was 0.5% and the “Luminescence capacity 10 secs. (%)” value was found to be 0.3%. Also, at recombinant apoaequorin [4], the “Ability to act as luminescence substrate” value is on record as “can be luminescence substrates for semi-synthetic aequorins”, the “Luminescence activity Imax (%)” value is 27.3% and the “Luminescence capacity 60 sec (%)” value is given as 44.1%. Also, in the data set on Gaussia luciferase, the “Luminescence activity Imax (%)” value was 0.9% and the “Luminescence capacity 10 secs. (%)” value was found to be 1.1%.

For the molecule `Oc1ccc(-c2cn3c(O)c(Cc4ccccc4)nc3c(Cc3ccccc3)n2)cc1` [h-CTZ, h-coelenterazine, reference compound], on recombinant apoaequorin [1], the “Half decay time sec.” value is 0.69 s. Besides, the entries for the “Maximum emission wavelength λmax (nm)” value (in data set [2]; on recombinant apoaequorin [3]; on Renilla luciferase) were 456.5 nm, 465.5 nm and 472.5 nm, respectively. For the same molecule, the “Luminescence capacity 10 secs. (%)” value in data set [2] worked out at 110.2%; at Renilla luciferase, 90.3%; in the data set with Gaussia luciferase, 7.2%. Besides, the “Luminescence activity Imax (%)” value is on record as 68.4% in data set [2], 78.6% at Renilla luciferase, 87.9% at recombinant apoaequorin [4] and 5.8% in the data set with Gaussia luciferase. For the same molecule, on recombinant apoaequorin [4], the “Luminescence capacity 60 sec (%)” value came to 70.1%.

Consider “n-coelenterazine [n-CTZ, reference compound]”, for which the “Half decay time sec.” value at recombinant apoaequorin [1] is 4.71 s. Also, the “Maximum emission wavelength λmax (nm)” value at recombinant apoaequorin [3] turned out to be 467.0 nm. In addition, on recombinant apoaequorin [4], the “Luminescence activity Imax (%)” value is recorded as 3.6% and the “Luminescence capacity 60 sec (%)” value came to 24.0%.
